Experimental data: PMC4216216 (Journal of Medicinal Chemistry, 2014)

Tests used:
LNCaP cells [1] = assay: Microarray gene expression in LNCaP cells; assay type: cell-based; conditions: 50 μM, 3 days
H3K9me3 in LNCaP cells = assay: Histone H3 methylation level in LNCaP cells, western blot; assay type: cell-based
KDM4A [2] = biological target: T1, KDM4A (Homo sapiens, UniProt O75164); assay: Demethylation of calf thymus H3 by KDM4A, western blot; conditions: 10 μM enzyme, 100 μM inhibitor, 5 μM H3, 37 °C, 30 min
T1 sequence (O75164 1-347): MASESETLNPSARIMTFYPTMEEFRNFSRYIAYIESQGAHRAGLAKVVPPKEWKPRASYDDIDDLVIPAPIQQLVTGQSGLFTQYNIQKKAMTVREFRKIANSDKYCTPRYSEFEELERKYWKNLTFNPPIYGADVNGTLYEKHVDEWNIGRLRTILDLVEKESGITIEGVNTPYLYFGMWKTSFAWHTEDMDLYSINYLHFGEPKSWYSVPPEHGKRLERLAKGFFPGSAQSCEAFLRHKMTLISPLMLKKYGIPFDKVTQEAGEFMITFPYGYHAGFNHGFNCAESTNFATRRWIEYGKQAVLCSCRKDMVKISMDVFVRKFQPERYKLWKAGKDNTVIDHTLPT

PNT2 cells = assay: PNT2 normal prostate cell growth; conditions: 5–20 μM, over 6 days
RWPE1 = RWPE1 normal prostate cell growth; conditions: 20 μM treatment
KDM4A [3] = biological target: T1, KDM4A
LNCaP cells [4] = conditions: 5–20 μM, over 6 days
KDM4B [5] = biological target: T2, KDM4B (Homo sapiens, UniProt O94953)
T2 sequence (O94953 1-348): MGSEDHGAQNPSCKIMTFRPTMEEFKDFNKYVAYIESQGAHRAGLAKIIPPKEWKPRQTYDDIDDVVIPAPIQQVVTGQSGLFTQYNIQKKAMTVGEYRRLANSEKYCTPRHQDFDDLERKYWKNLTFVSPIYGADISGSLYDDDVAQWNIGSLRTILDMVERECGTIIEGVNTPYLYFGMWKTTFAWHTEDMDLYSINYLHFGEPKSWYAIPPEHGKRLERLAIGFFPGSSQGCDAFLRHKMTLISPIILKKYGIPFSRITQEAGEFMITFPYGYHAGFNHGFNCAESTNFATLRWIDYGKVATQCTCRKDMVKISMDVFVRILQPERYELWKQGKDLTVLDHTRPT

cultured cells = conditions: as a prodrug; cited from earlier work
KDM4B [6] = biological target: T2, KDM4B; conditions: 10 μM enzyme, 100 μM inhibitor, 5 μM H3, 37 °C, 30 min
HeLa cells = conditions: read-out: cytotoxic IC50 in HeLa cells; cited from earlier work

Structure (SMILES)	expression of oncogenes IGF1R, FGFR3, CCNE2, AURKA and AURKB (LNCaP cells [1])	expression of tumor suppressors RB1 and CDH1 (LNCaP cells [1])	demethylating activity toward H3K9me3 in LNCaP cells (H3K9me3 in LNCaP cells; 5 μM, 24 h)	level of H3K9me3 in LNCaP cells (H3K9me3 in LNCaP cells; 10 µM, 3 days)	signals of H3K4me2, H3K27me3, H3K27me2, H3K36me3, H3K36me2 and H3K79me2 in LNCaP cells (H3K9me3 in LNCaP cells; 10 µM, 3 days, control vs treated)	cellular level of H3K9me3, dose-dependent (H3K9me3 in LNCaP cells; 1–100 μM, 24 h)	demethylation of histone H3K9me3 and H3K36me3 by KDM4A (KDM4A [2])	effect on PNT2 cells (PNT2 cells)	growth of RWPE1 cells (RWPE1)	inhibitory mode against H3_3–17K9me3, KDM4A (KDM4A [3])	growth of LNCaP cells (LNCaP cells [4])	activity (KDM4B [5]) [%]	cytotoxic IC50 in cultured cells (cultured cells)	activity (KDM4A [3]) [%]	demethylation of histone H3K9me3 and H3K36me3 by KDM4B (KDM4B [6])	IC50 (HeLa cells) [µM]
O=[N+]([O-])c1cc([N+](=O)[O-])c(/C=C/c2ccc(Cl)c(Cl)c2)cc1/C=C/c1ccc(Cl)c(Cl)c1 [Compound 4, 1,5-bis[(E)-2-(3,4-dichlorophenyl)ethenyl]-2,4-dinitrobenzene]	downregulation	upregulation	almost completely blocked	significantly increased	essentially comparable signals	notable increase	blocked the demethylation activity	hardly any effect	slightly reduced growth	competitive	significantly affected					
O=C(O)c1ccnc(C(=O)O)c1 [Compound 2, pyridine 2,4-dicarboxylic acid]							blocked the demethylation activity					24	millimolar range	21	blocked the demethylation activity	
O=C(O)c1ccc(O)c2ncccc12 [5-carboxy-8HQ]																86.5
